The values below come from patent publication US20070042409A1 (priority 2005, published 2007).

In assay [1] the test system is obestatin receptors, crude plasma membrane preparation of rat jejunum. Description: I^125-obestatin binding to crude plasma membrane preparation of rat jejunum. Conditions: for inhibition of I^125-obestatin binding: jejunum preparation; for competition of I^125-obestatin binding: rat jejunum preparation. The protocol:
Mixture of the peptide (20 μg) and 1 mCi [^125I] NaI was transferred to precoated Iodogen vials and incubated for 4 min. The ^125I-labeled peptide was applied to a Sep-Pak C18 cartridge (Waters, Milford, Mass.) before elution with 60% acetonitrile/0.1% TFA. For radioligand binding assays, rat jejunum or other tissues were washed with buffer A (20 mM Hepes, 5 mM EDTA, 1 mM dithiothreitol (DTT), 10 μM amidinophenylmethanesulfonyl fluoride, 5 mg/L leupeptin, 100 mM KCl, pH 7.5), cut into small pieces and homogenized using a Physcotron motorized homogenizer. The homogenates were centrifuged at 1,000 g for 5 min. and the supernatant was centrifuged at 300,000 g for 1 h at 2° C. The pellets (crude membrane fractions) were resuspended with buffer A without KCl, quickly frozen under liquid nitrogen, and stored at −80° C. until use. […] After incubation, the tubes were centrifuged for 10 min. at 10,000 g, and the pellet was washed twice in ice-cold PBS before counting using a γ-spectrophotometer. Specific binding was calculated by subtracting nonspecific binding from total binding.

Assay [2] addresses T1, GPR39 (Homo sapiens, UniProt O43194).
T1 construct: expressed in transfected cells; host or cells: CHO cells
T1 sequence (O43194 1-453): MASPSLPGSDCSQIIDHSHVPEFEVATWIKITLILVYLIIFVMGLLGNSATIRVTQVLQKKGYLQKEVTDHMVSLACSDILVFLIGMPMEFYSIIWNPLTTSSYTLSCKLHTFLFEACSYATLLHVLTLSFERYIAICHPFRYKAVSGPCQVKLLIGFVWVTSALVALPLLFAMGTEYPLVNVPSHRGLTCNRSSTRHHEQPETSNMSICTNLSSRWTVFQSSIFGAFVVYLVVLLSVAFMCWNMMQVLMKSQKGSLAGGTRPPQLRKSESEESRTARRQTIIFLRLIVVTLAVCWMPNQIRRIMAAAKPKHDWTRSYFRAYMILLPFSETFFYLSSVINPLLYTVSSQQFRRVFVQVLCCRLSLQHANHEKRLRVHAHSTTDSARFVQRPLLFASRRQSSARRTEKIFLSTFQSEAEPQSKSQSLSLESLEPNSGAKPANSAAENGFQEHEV
Description: I^125-obestatin binding to CHO cells overexpressing GPR39.

Assay [3] in a line: Food intake in food-deprived mice after intraperitoneal peptide treatment. Conditions: adult male mice, deprived of food 16 h, measured at 1, 3 and 5 h. It is filed as in vivo. As to the method:
(§1) Analysis of gastrointestinal functions. Eight-week-old C57BL6 male mice were housed individually in a regulated environment. Before intraperitoneal treatment with different peptides, mice were deprived of food for 16 h with free access to water. Food intake was measured by placing preweighed pellets in the cage and weighing uneaten pellets at 1, 3 and 5 h after treatment. To estimate gastric emptying responses, mice deprived of food for 16 h were given food pellets for 90 min. before injection of different hormones or saline. After treatment, mice were deprived of food again and killed 2 h later. The stomach was excised at the pylorus and cardia before weighing. Gastric emptying was calculated by subtracting the stomach weight of treated mice from those killed at the time of the hormone injection.

A short description of the next assay: Gastric emptying in mice. It is filed as in vivo. The conditions noted are these: adult male mice, intraperitoneal, killed 2 h after treatment. The protocol:
as §1

Assay [4] in a line: Body weight gain in adult male rats. The format is in vivo. Conditions: for body weight: 1 μmol/kg body weight, thrice daily.
Assay [5] addresses T1, GPR39. The assay can be described thus: cAMP production in CHO cells overexpressing GPR39. It is filed as cell-based. For orientation: Cyclic AMP is a second messenger, typically raised through Gs and lowered through Gi signalling.
The subject of assay [6] is cultured rat pituitary cells. The assay can be described thus: GH secretion from cultured rat pituitary cells.
Description: Pituitary cell cultures. Anterior pituitaries were removed from adult male Sprague-Dawley rats and dispersed with 0.3% collagenase, 0.1% hyaluronidase and DNase I (10 μg/ml). The cell suspension was centrifuged at 300 g for 5 min. and the cells were washed twice before incubated in DMEM containing 0.1% bovine serum albumin (BSA), penicillin (100 units/ml), streptomycin (100 μg/ml), fungizone (2.5 μg/ml) and 10% fetal calf serum. Cells were seeded onto poly-lysine-coated 24-well plates at a density of 2˜3×10^5 cells/well. Cultures were kept in a humidified atmosphere of 5% CO2 and 95% air at 37° C. […] Media was removed and rat GH was measured by an ELISA.
A further assay has as its system jejunum muscle strips. The assay can be described thus: Isometric force measurement of jejunum muscle strips. As to the method: Isometric force measurements. Jejunum muscle strips (˜1 cm in length) were cut along the longitudinal axis of the circular muscle layer, and the mucosa was removed to minimize endogenous peptides. Muscle strips were mounted to a TIS8105R (Kent Scientific Corporation, Torrington, Conn.) isometric strain gauge and immersed in a 5 ml organ bath maintained at 37° C. with oxygenated KRB [Krebs-Ringer phosphate buffer, consisting of 50 mM HEPES, 100 mM NaCl, 5 mM KCl, and 1 mM each of MgCl2, NaH2PO4, and CaCl2] as described earlier (Porcher et al. (2005) Am J Physiol Gastrointest Liver Physiol 288(5): G1091-103.). A resting force of 1.0 g was applied to intestinal muscles and a 1.5 h equilibration period was allowed before testing of different peptides during a 5 min. period by incubating muscles with peptides at desired concentrations. After each test, muscle strips were washed with fresh KRB for 20 min. to allow full recovery of basal contractile activities. Maximal contraction was evaluated at the beginning and end of each experiment following treatment with 10 μM of acetylcholine chloride. Contractility data were digitized and stored in a computer using the Acknowledge software (MP 100, Biopac Systems, Inc., Goleta, Calif.). Magnitude of contractile strength is expressed as % of maximal contraction induced by acetylcholine.

The target in a further assay is T2, GHSR (Homo sapiens, UniProt Q92847).
T2 construct: expressed in transfected cells; host or cells: CHO cells
T2 sequence (Q92847 whole entry, species assumed): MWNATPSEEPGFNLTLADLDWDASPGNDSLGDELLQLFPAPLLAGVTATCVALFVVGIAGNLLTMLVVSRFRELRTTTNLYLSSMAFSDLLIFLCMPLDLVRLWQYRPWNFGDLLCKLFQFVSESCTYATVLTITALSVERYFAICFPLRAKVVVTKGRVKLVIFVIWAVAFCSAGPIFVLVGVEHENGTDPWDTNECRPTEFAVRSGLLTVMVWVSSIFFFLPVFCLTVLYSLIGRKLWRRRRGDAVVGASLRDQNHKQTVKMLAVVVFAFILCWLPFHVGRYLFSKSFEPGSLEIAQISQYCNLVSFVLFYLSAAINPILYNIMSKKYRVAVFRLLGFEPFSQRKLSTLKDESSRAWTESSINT
Description: cAMP production in CHO cells expressing GHSR, with or without chimeric Gsq protein. It is filed as cell-based. Conditions: without Gsq.

Assay [7] deals with T1, GPR39. The assay can be described thus: SRE promoter-luciferase reporter in cells cotransfected with GPR39. The format is cell-based. Conditions: cotransfection of GPR39 and SRE promoter-luciferase construct. (In a reporter assay the amount or activity of a reporter protein is the signal.)
The next assay addresses T3, V50-GPR39 (Homo sapiens, UniProt O43194, A50V).
T3 sequence (O43194 1-453 A50V): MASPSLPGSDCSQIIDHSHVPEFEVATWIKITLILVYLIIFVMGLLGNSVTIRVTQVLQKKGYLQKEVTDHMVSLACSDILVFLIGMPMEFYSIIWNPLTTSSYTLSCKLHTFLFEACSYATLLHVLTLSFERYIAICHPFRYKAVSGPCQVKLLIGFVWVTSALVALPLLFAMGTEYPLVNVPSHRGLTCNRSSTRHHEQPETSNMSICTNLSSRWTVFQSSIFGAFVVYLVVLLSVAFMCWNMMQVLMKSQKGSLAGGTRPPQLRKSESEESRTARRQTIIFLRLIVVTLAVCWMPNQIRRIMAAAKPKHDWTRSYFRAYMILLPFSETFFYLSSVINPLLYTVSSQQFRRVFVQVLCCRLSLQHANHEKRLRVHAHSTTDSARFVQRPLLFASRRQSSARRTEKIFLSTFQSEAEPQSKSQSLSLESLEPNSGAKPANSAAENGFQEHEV
Conditions: ratio of affinities to obestatin.

The target of assay [8] is T4, GPR39 (wild type A50-GPR39) (human, UniProt O43194 1-453).
T4 construct: also called obestatin receptor; orphan receptor GPR39
T4 sequence: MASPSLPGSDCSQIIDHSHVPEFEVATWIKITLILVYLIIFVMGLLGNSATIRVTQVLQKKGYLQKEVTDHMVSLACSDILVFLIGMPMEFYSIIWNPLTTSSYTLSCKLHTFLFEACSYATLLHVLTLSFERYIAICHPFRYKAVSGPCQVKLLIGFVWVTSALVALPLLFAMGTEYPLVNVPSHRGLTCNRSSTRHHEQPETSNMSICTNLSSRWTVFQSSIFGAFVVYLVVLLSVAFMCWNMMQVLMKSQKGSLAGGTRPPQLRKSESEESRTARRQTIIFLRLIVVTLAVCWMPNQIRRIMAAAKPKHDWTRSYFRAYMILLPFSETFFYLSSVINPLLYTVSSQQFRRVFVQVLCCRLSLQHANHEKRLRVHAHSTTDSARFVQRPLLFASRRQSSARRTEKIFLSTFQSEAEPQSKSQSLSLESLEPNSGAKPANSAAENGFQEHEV
Description: displacement of I^125-obestatin from GPR39.

Where two headings read alike, the source gives them in different places. No end group written: not given here.

The term Kd denotes a measure of binding affinity in units of concentration.

Consider `Nc1nc2c(ncn2[C@@H]2O[C@H](COP(=O)(O)OP(=O)(O)OP(O)(O)=S)[C@@H](O)[C@H]2O)c(=O)[nH]1` [GTPγS], for which the “inhibition of I^125-obestatin binding” value in [1] (GTPγS 1 uM) is given as 5%; in [1] (GTPγS 10 uM) it was 20%; in assay [1] (GTPγS 100 uM) it was 45%.
Turning to “(des1-10)obestatin: truncated obestatin lacking residues 1-10 (LSGVQYQQHSQAL)”, the “competition of I^125-obestatin binding” value in [1] is recorded as “less effective than obestatin”. For the same molecule, the “competition of obestatin binding to GPR39” value in the assay with GPR39 [2] is on record as “less effective”.
In the case of “NA-obestatin: non-amidated obestatin, synthesized by GL Biochem”, in [3], the food intake result is “minimally effective”. Moreover, the gastric emptying activity entry in the assay “Gastric emptying in mice” is on record as “less effective”. In assay [1], the “competition of I^125-obestatin binding” value is given as “less effective than obestatin”.
With “neuromedin U: peptide purchased from Phoenix Pharmaceuticals (FRVDEEFQSPFASQSRGYFLFRPRN; ends and bridges not checked; UniProt P48645 142-166, looked up)”, in assay [1], the “competition of I^125-obestatin binding” value is “not competed”.
For “ghrelin: n-octanoylated 28 amino acid peptide, endogenous GHSR ligand; purchased from Phoenix Pharmaceuticals (GSSFLSPEHQRVQQRKESKKPPAKLQPR; not fully specified (residue 3); UniProt Q9UBU3 24-51, looked up) [reference compound]”, in assay [3], the food intake entry is “minimally effective”. Besides, the gastric emptying activity entry in the assay “Gastric emptying in mice” is given as “ineffective”. The body weight result in assay [4] is reported as “increased body weight”. Also, the “competition of I^125-obestatin binding” value in assay [1] was “not competed”. The cAMP production result with GPR39 [5] was “ineffective”. Further, the GH secretion in assay [6] was 2.32+/−0.08 ng/culture.
`CC[C@H](C)[C@H](NC(=O)[C@@H]1CCCN1C(=O)[C@@H](NC(=O)[C@@H](N)Cc1ccccc1)C(C)C)C(=O)N[C@@H](Cc1ccccc1)C(=O)N[C@H](C(=O)N[C@@H](Cc1ccc(O)cc1)C(=O)NCC(=O)N[C@@H](CCC(=O)O)C(=O)N[C@@H](CC(C)C)C(=O)N[C@@H](CCC(N)=O)C(=O)N[C@@H](CCCNC(=N)N)C(=O)N[C@@H](CCSC)C(=O)N[C@@H](CCC(N)=O)C(=O)N[C@@H](CCC(=O)O)C(=O)N[C@@H](CCCCN)C(=O)N[C@@H](CCC(=O)O)C(=O)N[C@@H](CCCNC(=N)N)C(=O)N[C@@H](CC(N)=O)C(=O)N[C@@H](CCCCN)C(=O)NCC(=O)N[C@@H](CCC(N)=O)C(=O)O)[C@@H](C)O` [motilin]: in assay [1], the “competition of I^125-obestatin binding” value was “not competed”. In addition, the cAMP production entry at GPR39 [5] was “ineffective”.
Consider “urocortin: peptide injected in mice as positive control for food intake suppression (DNPSLSIDLTFHLLRTLLELARTQSQRERAEQNRIIFDSV; ends and bridges not checked; UniProt P55089 83-122, looked up) [reference compound]”, for which the food intake result in [3] was “suppressed food intake”.
On to “synthesized amidated human obestatin, 23 residue peptide derived from proghrelin; FNAPFDVGIKLSGVQYQQHSQAL-NH2 (SEQ ID NO:4); also used iodinated as radioligand”, for which the food intake result in assay [3] is listed as “suppressed food intake for five hours in a dose-dependent manner”. Further, in the assay “Gastric emptying in mice”, the gastric emptying activity result is “sustained suppression of gastric emptying activity”. Also, in [4], the body weight entry is “suppressed body weight gain”. In [4] (cotreatment of obestatin with ghrelin), the “body weight, cotreatment with ghrelin” value is listed as “antagonized the orexigenic action of ghrelin”. Also, in the assay with jejunum muscle strips (effect on stimulatory effect of ghrelin), the “contractile activity of jejunum muscle strips in presence of ghrelin” value was “antagonized the known stimulatory effect of ghrelin”. In the assay on jejunum muscle strips (isometric force measurement), the “contractile activity of jejunum muscle strips” value was “decreased contractile activity”. The molecule also showed a Kd in assay [1] (labeled obestatin, rat jejunum crude plasma membrane) of 4 nM. In addition, on GPR39 [2], the “competition of obestatin binding to GPR39” value is recorded as “competed”. In addition, on GPR39 [5], the cAMP production entry is recorded as “dose-dependent increases in cAMP production”. For the same molecule, the cAMP response entry at GHSR is recorded as “did not respond”. Also, the SRE promoter-luciferase signaling result on GPR39 [7] is listed as “conferred obestatin”. In addition, at V50-GPR39, the “affinity of V50-GPR39 relative to wild type A50-GPR39” value is “two-fold higher affinity”. Besides, the GH secretion in assay [6] (100 nM, cultured rat pituitary cells, 1 h, control 1.04+/−0.03) is 1.04+/−0.03 ng/culture.

B1: (des1-10)obestatin (peptide)
peptide: LSGVQYQQHSQAL
modifications: ends and bridges not checked
notes: Synthetic obestatin lacking residues 1-10; The range 11-23 is derived from the name; also called truncated (des1-10)obestatin
In the case of B1, the binding result in assay [8] is “binds”.
